Measured values as given in ChEMBL document CHEMBL1926576, “Fragment based lead discovery of small molecule inhibitors for the EPHA4 receptor tyrosine kinase” (Eur J Med Chem, 2012).

Columns and labels:
[1] = molecular target: NUAK family SNF1-like kinase 1 (Homo sapiens) (UniProt O60285); assay: Inhibition of NUAK1 assessed as residual activity at 10 uM using [33P-ATP] by radiometric filter binding assay
[2] = molecular target: Serine/threonine-protein kinase OSR1 (Homo sapiens) (UniProt O95747); assay: Inhibition of OSR1 assessed as residual activity at 10 uM using [33P-ATP] by radiometric filter binding assay
[3] = molecular target: Serine/threonine-protein kinase PAK 2 (Homo sapiens) (UniProt Q13177); assay: Inhibition of PAK2 assessed as residual activity at 10 uM using [33P-ATP] by radiometric filter binding assay
[4] = molecular target: Serine/threonine-protein kinase PAK 6 (Homo sapiens) (UniProt Q9NQU5); assay: Inhibition of PAK6 assessed as residual activity at 10 uM using [33P-ATP] by radiometric filter binding assay
[5] = Inhibition of PHK assessed as residual activity at 10 uM using [33P-ATP] by radiometric filter binding assay
[6] = Inhibition of PKA assessed as residual activity at 10 uM using [33P-ATP] by radiometric filter binding assay
[7] = molecular target: RAC-beta serine/threonine-protein kinase (Homo sapiens) (UniProt P31751); assay: Inhibition of PKBbeta assessed as residual activity at 10 uM using [33P-ATP] by radiometric filter binding assay
[8] = molecular target: Serine/threonine-protein kinase Sgk1 (Homo sapiens) (UniProt O00141); assay: Inhibition of SGK1 assessed as residual activity at 10 uM using [33P-ATP] by radiometric filter binding assay
[9] = molecular target: Myosin light chain kinase, smooth muscle (Homo sapiens) (UniProt Q15746); assay: Inhibition of SmMLCK assessed as residual activity at 10 uM using [33P-ATP] by radiometric filter binding assay
[10] = molecular target: Serine/threonine-protein kinase 33 (Homo sapiens) (UniProt Q9BYT3); assay: Inhibition of STK33 assessed as residual activity at 10 uM using [33P-ATP] by radiometric filter binding assay
Sequence of Serine/threonine-protein kinase 33 (Homo sapiens) (Q9BYT3 whole entry, looked up): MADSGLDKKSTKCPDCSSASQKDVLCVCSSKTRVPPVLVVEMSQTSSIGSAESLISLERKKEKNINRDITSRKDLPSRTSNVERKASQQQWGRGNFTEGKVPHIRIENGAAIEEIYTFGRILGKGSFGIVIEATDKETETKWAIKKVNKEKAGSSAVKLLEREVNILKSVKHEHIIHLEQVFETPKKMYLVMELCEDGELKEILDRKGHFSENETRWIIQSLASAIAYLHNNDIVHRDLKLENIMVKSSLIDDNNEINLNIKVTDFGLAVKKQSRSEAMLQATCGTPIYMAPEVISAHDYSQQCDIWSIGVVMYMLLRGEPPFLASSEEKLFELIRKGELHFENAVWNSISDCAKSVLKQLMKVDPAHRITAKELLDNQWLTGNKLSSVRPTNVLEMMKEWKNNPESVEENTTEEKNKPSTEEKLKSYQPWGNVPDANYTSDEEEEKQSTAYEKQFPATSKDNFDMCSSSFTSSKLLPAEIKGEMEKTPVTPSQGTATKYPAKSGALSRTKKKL

[11] = molecular target: Dual specificity testis-specific protein kinase 1 (Homo sapiens) (UniProt Q15569); assay: Inhibition of TESK1 assessed as residual activity at 10 uM using [33P-ATP] by radiometric filter binding assay
[12] = molecular target: Mitogen-activated protein kinase kinase kinase 5 (Homo sapiens) (UniProt Q99683); assay: Inhibition of ASK1 assessed as residual activity at 10 uM using [33P-ATP] by radiometric filter binding assay
[13] = molecular target: Tyrosine-protein kinase ABL1 (Homo sapiens) (UniProt P00519); assay: Inhibition of ABL assessed as residual activity at 10 uM using [33P-ATP] by radiometric filter binding assay
[14] = molecular target: Aurora kinase A (Homo sapiens) (UniProt O14965); assay: Inhibition of aurora-A assessed as residual activity at 10 uM using [33P-ATP] by radiometric filter binding assay
[15] = molecular target: Aurora kinase B (Homo sapiens) (UniProt Q96GD4); assay: Inhibition of aurora-B assessed as residual activity at 10 uM using [33P-ATP] by radiometric filter binding assay
[16] = molecular target: Serine/threonine-protein kinase BRSK2 (Homo sapiens) (UniProt Q8IWQ3); assay: Inhibition of BRSK2 assessed as residual activity at 10 uM using [33P-ATP] by radiometric filter binding assay
Sequence of Serine/threonine-protein kinase BRSK2 (Homo sapiens) (Q8IWQ3 whole entry): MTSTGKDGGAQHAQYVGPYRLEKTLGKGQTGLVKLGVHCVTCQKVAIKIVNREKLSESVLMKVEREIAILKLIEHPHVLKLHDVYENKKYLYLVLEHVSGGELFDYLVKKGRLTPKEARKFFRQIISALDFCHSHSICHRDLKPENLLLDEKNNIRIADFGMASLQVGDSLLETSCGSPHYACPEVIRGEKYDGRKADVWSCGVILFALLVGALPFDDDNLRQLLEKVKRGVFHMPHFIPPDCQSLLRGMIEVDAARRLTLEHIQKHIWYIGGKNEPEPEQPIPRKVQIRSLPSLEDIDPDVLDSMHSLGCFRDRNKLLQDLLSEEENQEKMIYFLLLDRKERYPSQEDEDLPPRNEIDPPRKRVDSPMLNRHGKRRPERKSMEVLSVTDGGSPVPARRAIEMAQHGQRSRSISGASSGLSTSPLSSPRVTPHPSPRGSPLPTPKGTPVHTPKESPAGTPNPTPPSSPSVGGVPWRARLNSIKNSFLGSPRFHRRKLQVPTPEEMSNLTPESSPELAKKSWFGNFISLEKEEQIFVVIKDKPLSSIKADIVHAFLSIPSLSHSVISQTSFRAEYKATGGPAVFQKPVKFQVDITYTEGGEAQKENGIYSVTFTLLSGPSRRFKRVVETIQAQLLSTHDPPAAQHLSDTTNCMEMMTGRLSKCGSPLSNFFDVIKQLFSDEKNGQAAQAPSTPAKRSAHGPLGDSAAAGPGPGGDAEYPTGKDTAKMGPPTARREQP

[17] = molecular target: Cyclin-dependent kinase 2/cyclin A (Homo sapiens) (UniProt P24941+P20248+P78396); assay: Inhibition of CDK2/Cyclin A assessed as residual activity at 10 uM using [33P-ATP] by radiometric filter binding assay; format: protein-complex assay
[18] = molecular target: Casein kinase I isoform alpha (Homo sapiens) (UniProt P48729); assay: Inhibition of CK1 assessed as residual activity at 10 uM using [33P-ATP] by radiometric filter binding assay
[19] = molecular target: Dual specificity tyrosine-phosphorylation-regulated kinase 2 (Homo sapiens) (UniProt Q92630); assay: Inhibition of DYRK2 assessed as residual activity at 10 uM using [33P-ATP] by radiometric filter binding assay
[20] = molecular target: Ephrin type-B receptor 2 (Homo sapiens) (UniProt P29323); assay: Inhibition of EPHB2 assessed as residual activity at 10 uM using [33P-ATP] by radiometric filter binding assay
[21] = molecular target: Mitogen-activated protein kinase 15 (Homo sapiens) (UniProt Q8TD08); assay: Inhibition of ERK8 assessed as residual activity at 10 uM using [33P-ATP] by radiometric filter binding assay
[22] = molecular target: Glycogen synthase kinase-3 beta (Homo sapiens) (UniProt P49841); assay: Inhibition of GSK3b assessed as residual activity at 10 uM using [33P-ATP] by radiometric filter binding assay
[23] = molecular target: Homeodomain-interacting protein kinase 1 (Homo sapiens) (UniProt Q86Z02); assay: Inhibition of HIPK1 assessed as residual activity at 10 uM using [33P-ATP] by radiometric filter binding assay
[24] = molecular target: Homeodomain-interacting protein kinase 2 (Homo sapiens) (UniProt Q9H2X6); assay: Inhibition of HIPK2 assessed as residual activity at 10 uM using [33P-ATP] by radiometric filter binding assay
[25] = molecular target: Homeodomain-interacting protein kinase 3 (Homo sapiens) (UniProt Q9H422); assay: Inhibition of HIPK3 assessed as residual activity at 10 uM using [33P-ATP] by radiometric filter binding assay
Sequence of Homeodomain-interacting protein kinase 3 (Homo sapiens) (Q9H422 whole entry, looked up): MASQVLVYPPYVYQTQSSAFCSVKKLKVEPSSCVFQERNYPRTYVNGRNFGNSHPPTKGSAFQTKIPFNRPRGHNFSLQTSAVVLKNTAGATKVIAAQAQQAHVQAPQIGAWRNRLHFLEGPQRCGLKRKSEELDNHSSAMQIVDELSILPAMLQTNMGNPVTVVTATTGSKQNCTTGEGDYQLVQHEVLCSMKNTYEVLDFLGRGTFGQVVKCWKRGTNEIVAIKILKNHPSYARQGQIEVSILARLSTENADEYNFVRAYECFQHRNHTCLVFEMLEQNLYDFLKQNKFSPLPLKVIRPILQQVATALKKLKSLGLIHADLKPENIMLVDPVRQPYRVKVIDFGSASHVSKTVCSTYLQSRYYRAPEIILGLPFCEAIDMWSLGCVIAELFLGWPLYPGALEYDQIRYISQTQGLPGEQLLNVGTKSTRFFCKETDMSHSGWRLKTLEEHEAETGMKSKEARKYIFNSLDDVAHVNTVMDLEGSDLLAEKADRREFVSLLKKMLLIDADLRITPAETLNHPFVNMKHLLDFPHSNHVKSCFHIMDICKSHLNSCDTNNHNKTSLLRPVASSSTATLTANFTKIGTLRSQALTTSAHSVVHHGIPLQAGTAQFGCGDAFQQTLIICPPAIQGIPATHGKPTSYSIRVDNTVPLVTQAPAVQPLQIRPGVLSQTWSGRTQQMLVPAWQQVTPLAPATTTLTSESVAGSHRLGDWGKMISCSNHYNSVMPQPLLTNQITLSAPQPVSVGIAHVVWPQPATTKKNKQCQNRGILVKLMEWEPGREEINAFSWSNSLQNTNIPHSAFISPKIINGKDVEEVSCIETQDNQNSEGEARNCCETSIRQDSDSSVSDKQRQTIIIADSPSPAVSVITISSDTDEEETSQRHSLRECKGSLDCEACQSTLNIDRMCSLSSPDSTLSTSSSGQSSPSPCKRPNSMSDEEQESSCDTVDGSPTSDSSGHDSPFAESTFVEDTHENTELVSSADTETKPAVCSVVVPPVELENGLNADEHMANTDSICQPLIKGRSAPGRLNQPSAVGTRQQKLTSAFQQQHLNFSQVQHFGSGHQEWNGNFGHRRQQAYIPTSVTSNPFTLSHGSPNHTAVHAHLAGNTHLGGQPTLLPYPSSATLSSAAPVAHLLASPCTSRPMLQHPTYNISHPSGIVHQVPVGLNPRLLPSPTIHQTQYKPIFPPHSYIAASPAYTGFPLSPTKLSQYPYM

[26] = molecular target: Insulin-like growth factor 1 receptor (Homo sapiens) (UniProt P08069); assay: Inhibition of IGF-1R assessed as residual activity at 10 uM using [33P-ATP] by radiometric filter binding assay
[27] = molecular target: Serine/threonine-protein kinase MARK1 (Homo sapiens) (UniProt Q9P0L2); assay: Inhibition of MARK1 assessed as residual activity at 10 uM using [33P-ATP] by radiometric filter binding assay
[28] = molecular target: MAP/microtubule affinity-regulating kinase 3 (Homo sapiens) (UniProt P27448); assay: Inhibition of MARK3 assessed as residual activity at 10 uM using [33P-ATP] by radiometric filter binding assay
[29] = molecular target: MAP/microtubule affinity-regulating kinase 4 (Homo sapiens) (UniProt Q96L34); assay: Inhibition of MARK4 assessed as residual activity at 10 uM using [33P-ATP] by radiometric filter binding assay
[30] = molecular target: Dual specificity mitogen-activated protein kinase kinase 1 (Homo sapiens) (UniProt Q02750); assay: Inhibition of MKK1 assessed as residual activity at 10 uM using [33P-ATP] by radiometric filter binding assay
[31] = molecular target: Dual specificity mitogen-activated protein kinase kinase 2 (Homo sapiens) (UniProt P36507); assay: Inhibition of MKK2 assessed as residual activity at 10 uM using [33P-ATP] by radiometric filter binding assay
[32] = molecular target: Serine/threonine-protein kinase 26 (Homo sapiens) (UniProt Q9P289); assay: Inhibition of MST4 assessed as residual activity at 10 uM using [33P-ATP] by radiometric filter binding assay
Sequence of Serine/threonine-protein kinase 26 (Homo sapiens) (Q9P289 2-416 limits assumed): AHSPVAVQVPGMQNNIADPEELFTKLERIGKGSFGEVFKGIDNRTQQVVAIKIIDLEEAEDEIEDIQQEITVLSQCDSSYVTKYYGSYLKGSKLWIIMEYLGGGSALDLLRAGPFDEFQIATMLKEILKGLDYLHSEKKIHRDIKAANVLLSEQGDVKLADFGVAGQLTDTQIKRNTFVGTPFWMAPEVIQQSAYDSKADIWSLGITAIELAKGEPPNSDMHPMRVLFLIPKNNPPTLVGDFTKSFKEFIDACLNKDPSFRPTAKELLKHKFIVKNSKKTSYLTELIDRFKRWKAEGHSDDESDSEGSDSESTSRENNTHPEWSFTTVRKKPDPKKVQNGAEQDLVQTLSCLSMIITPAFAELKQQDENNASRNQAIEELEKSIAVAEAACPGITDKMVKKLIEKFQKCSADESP

[33] = molecular target: Mitogen-activated protein kinase kinase kinase 1 (Homo sapiens) (UniProt Q13233); assay: Inhibition of MEKK1 assessed as residual activity at 10 uM using [33P-ATP] by radiometric filter binding assay
Sequence of Mitogen-activated protein kinase kinase kinase 1 (Homo sapiens) (Q13233 whole entry, looked up): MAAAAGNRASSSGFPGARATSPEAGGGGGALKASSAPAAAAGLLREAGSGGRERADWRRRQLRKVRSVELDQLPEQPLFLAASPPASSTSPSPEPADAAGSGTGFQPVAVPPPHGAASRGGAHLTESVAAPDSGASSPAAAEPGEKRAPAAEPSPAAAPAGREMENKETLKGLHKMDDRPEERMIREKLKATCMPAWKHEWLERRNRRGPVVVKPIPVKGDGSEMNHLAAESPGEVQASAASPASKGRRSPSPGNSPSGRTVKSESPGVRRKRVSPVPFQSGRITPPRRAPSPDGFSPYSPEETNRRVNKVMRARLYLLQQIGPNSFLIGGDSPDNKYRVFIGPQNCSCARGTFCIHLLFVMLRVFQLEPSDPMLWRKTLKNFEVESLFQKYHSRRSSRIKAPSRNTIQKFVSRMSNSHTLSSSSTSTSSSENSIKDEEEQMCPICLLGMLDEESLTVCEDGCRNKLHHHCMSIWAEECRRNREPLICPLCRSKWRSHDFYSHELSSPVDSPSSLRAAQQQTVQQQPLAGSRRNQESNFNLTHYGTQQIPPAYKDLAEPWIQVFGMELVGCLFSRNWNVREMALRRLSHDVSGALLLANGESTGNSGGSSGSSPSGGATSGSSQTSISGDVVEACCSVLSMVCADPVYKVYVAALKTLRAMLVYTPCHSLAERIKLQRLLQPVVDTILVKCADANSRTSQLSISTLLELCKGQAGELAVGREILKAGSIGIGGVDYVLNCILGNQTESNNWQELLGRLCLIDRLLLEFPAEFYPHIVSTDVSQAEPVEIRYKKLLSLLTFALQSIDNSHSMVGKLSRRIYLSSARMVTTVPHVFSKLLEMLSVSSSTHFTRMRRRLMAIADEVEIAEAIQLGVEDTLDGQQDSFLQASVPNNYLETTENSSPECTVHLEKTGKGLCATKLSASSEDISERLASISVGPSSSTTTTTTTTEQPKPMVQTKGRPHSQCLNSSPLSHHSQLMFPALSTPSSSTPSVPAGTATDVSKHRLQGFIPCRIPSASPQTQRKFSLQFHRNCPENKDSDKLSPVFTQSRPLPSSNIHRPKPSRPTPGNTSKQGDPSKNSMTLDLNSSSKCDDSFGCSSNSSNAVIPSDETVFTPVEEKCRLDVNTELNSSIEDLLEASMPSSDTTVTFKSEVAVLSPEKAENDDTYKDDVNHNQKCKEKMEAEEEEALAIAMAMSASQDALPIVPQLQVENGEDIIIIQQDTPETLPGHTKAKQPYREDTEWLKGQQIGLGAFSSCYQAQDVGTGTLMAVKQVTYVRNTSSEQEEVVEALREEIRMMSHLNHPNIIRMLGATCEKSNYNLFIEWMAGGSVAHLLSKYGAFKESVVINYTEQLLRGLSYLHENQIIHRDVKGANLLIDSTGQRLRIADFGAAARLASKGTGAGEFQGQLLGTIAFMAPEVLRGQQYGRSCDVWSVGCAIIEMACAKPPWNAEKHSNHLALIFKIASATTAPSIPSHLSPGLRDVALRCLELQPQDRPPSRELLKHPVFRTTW

Sequence of NUAK family SNF1-like kinase 1 (Homo sapiens) (O60285 whole entry): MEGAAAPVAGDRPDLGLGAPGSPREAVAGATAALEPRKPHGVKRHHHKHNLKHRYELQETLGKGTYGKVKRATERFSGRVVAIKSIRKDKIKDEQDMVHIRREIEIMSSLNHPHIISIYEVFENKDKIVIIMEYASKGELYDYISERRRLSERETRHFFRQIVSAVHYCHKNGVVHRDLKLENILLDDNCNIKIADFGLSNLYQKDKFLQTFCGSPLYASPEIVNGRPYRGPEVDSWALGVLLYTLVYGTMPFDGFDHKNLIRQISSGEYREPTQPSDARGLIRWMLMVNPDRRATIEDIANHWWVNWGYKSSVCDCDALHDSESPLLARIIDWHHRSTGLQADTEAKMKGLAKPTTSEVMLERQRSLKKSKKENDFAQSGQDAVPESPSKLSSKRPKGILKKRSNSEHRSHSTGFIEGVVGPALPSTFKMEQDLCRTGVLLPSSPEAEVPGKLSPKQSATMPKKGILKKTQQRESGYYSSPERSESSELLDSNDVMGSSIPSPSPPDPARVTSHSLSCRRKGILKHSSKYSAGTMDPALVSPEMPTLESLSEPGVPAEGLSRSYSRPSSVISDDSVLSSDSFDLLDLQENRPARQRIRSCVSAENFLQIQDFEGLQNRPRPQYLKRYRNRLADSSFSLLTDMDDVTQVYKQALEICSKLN

Cc1ccc(F)cc1-c1nc2[nH]nc(N)c2c2c1CCCC2
Activity [1]: 79%
Activity [2]: 81%
Activity [3]: 79%
Activity [4]: 103%
Activity [5]: 86%
Activity [6]: 93%
Activity [7]: 77%
Activity [8]: 85%
Activity [9]: 63%
Activity [10]: 97%
Activity [11]: 23%
Activity [12]: 99%
Activity [13]: 45%
Activity [14]: 68%
Activity [15]: 49%
Activity [16]: 73%
Activity [17]: 87%
Activity [18]: 96%
Activity [19]: 101%
Activity [20]: 4%
Activity [21]: 46%
Activity [22]: 73%
Activity [23]: 124%
Activity [24]: 98%
Activity [25]: 94%
Activity [26]: 71%
Activity [27]: 86%
Activity [28]: 81%
Activity [29]: 74%
Activity [30]: 29%
Activity [31]: 31%
Activity [32]: 52%
Activity [33]: 115%
